What all share (type): cell-based
Test [1] concerns AGS cells. The test is described as follows: Inhibition of ERK phosphorylation of AGS cells (HTRF method). To be noted: Homo sapiens, AGS, phosphorylated ERK/total ERK ratio, 1 h incubation. How it is done:
AGS cells (Nanjing Cobioer, CBP60476) were cultured in RPMI1640 (Hyclone, SH30809.01) complete medium containing 10% fetal bovine serum. On the first day of the experiment, the AGS cells were seeded into a 96-well plate with complete medium at a density of 40,000 cells/well to form 190 µL of cell suspension per well. The plate was incubated overnight in a cell incubator at 37 °C with 5% CO2.
The next day, 10 µL of serially-diluted test compound prepared from the complete medium was added to each well. The final concentrations of the compound were 9 concentration points obtained by 5-fold serial dilution from 10 µM. A blank control containing 0.5% DMSO was set. The well plate was incubated in a cell incubator at 37 °C with 5% CO2 for 1 h. After completion of incubation, the 96-well cell culture plate was taken out, the medium was removed by pipetting, 200 µL PBS (Shanghai BasalMedia Technologies Co., Ltd., B320) was added to each well, and the cells were washed once. PBS was removed by pipetting, 50 µL of lysis buffer (Cisbio, 64KL1FDF) containing a blocking solution (blocking reagent, Cisbio, 64KB1AAC) was added to each well, and the well plate was lysed on a shaker for 40 min at room temperature with shaking. After lysis, the lysate was pipetted and mixed well, 16 µL of lysate was transferred to two HTRF 96-well assay plates (Cisbio, 66PL96100) per well, and then 4 µL of premixed phosphorylated ERK1/2 antibody solution (Cisbio, 64AERPEG) or 4 µL of premixed total ERK1/2 antibody solution (Cisbio, 64NRKPEG) was added to these two plates. The microplate was sealed with a sealing membrane, centrifuged for 1 min in a microplate centrifuge, and incubated overnight at room temperature in the dark. On the third day, the fluorescence values at an excitation wavelength of 337 nm and at emission wavelengths of 665 nm and 620 nm were read using an ENVISION multifunctional microplate reader (PerkinElmer, ENVISION).
Table 1. Inhibitory activity data for ERK phosphorylation of AGS cells
A general note: Time-resolved FRET reads energy transfer from a long-lived donor to a nearby acceptor.

Test [2] has as its system AGS cells. The test is described as follows: Inhibition of 3D proliferation of AGS cells (CellTiter-Glo 3D). To be noted: Homo sapiens, 120 h incubation. As for the experimental part: AGS cells (Nanjing Cobioer, CBP60476) were cultured in a complete medium, namely RPMI1640 medium (Hyclone, SH30809.01) containing 10% fetal bovine serum (Corning, 35-076-CV). On the first day of the experiment, the AGS cells were seeded into a 96-well low adsorption plate (Corning, CLS7007-24EA) at a density of 1,000 cells/well using complete medium to form 90 µL of cell suspension per well. The plate was centrifuged at 2,000rpm for 5 min at room temperature and then incubated overnight in a cell incubator at 37 °C with 5% CO2.
(§1) The next day, 10 µL of serially-diluted test compound prepared from the complete medium was added to each well. The final concentrations of the compound of GP2d cells were 9 concentration points obtained by 3-fold serial dilution from 1 µM, and the final concentrations of the compound of AGS cells were 9 concentration points obtained by 3-fold serial dilution from 10 µM. A blank control containing 0.5% DMSO was set. The well plate was incubated in a cell incubator at 37 °C with 5% CO2 for 120 h. On the seventh day, the 96-well cell culture plate was taken out, 50 µL CellTiter-Glo® 3D reagent (Promega, G9682) was added into each well, the plate was shaken at room temperature for 25 min, pipetted and mixed well, 50 µL of the solution was transferred into a white impermeable 96-well plate (PE, 6005290), and the luminescence signal values were read using a multifunctional microplate reader (PerkinElmer, ENVISION).
(§2) Table 2. Inhibitory activity data for 3D proliferation of AGS and GP2d cells
(ATP-based viability assays read luminescence as a measure of living cells.)

A further test relates to GP2d cells. The test is described as follows: Inhibition of 3D proliferation of GP2d cells (CellTiter-Glo 3D). Conditions: 120 h incubation. How it is done: GP2d cells (Nanjing Cobioer, CBP60010) were cultured in a complete medium, namely DMEM/high glucose medium (Hyclone, SH30243.01) containing 10% fetal bovine serum (Corning, 35-076-CV). On the first day of the experiment, GP2d cells were seeded into a 96-well low adsorption plate (Corning, CLS7007-24EA) with complete medium at a density of 1,000 cells/well to form 90 µL of cell suspension per well. The plate was centrifuged at 2,000 rpm for 5 min at room temperature and then incubated overnight in a cell incubator at 37 °C with 5% CO2.
as §1, §2

Each structure is given as a SMILES string.

As to `Oc1cc(-c2nc3c4c(nc(OC[C@@]56CCCN5C[C@H](F)C6)nc4c2F)N2C[C@H]4CC[C@H](N4)[C@H]2CO3)c2c(F)cccc2c1` [Example 3-p1, 5-Fluoro-4-((5aS,6S,9R)-1-fluoro-12-(((2R,7aS)-2-fluorotetrahydro-1H-pyrrolizin-7a(5 H)-yl)methoxy)-5a,6,7,8,9,10-hexahydro-5H-4-oxa-3,10a,11,13,14-pentaaza-6,9-methanonaphtho[1,8-ab]heptalen-2-yl)naphthalen-2-ol], the IC50 (usually the concentration needed to halve the response being measured) in the test on AGS cells [1] worked out at 17 nM; in the test on AGS cells [2], 95.3 nM; in the test on GP2d cells, 13 nM.

`CCc1cccc2cc(O)cc(-c3nc4c5c(nc(OC[C@@]67CCCN6C[C@H](F)C7)nc5c3F)N3C[C@H]5CC[C@H](N5)[C@H]3CO4)c12` [Example 4-p1, 5-Ethyl-4-((5aS,6S,9R)-1-fluoro-12-(((2R,7aS)-2-fluorotetrahydro-1H-pyrrolizin-7a(5H )-yl)methoxy)-5a,6,7,8,9,10-hexahydro-5H-4-oxa-3,10a,11,13,14-pentaaza-6,9-methanonaphtho[1,8-ab]heptalen-2-yl)naphthalen-2-ol]: the results for the half-inhibitory concentration (IC50) in the test on AGS cells [1], in the test with AGS cells [2] and in the test on GP2d cells were 2 nM, 14.5 nM and 0.8 nM, respectively.

For the molecule `Oc1cc(Cl)c(C2CC2)c(-c2nc3c4c(nc(OC[C@@]56CCCN5C[C@H](F)C6)nc4c2F)N2C[C@H]4CC[C@H](N4)[C@H]2CO3)c1` [Example 6-p1, 3-Chloro-4-cyclopropyl-5-((5aS,6S,9R)-1-fluoro-12-(((2R,7aS)-2-fluorotetrahydro-1H-pyrrolizin-7a(5H)-yl)methoxy)-5a,6,7,8,9,10-hexahydro-5H-4-oxa-3,10a,11,13,14-pentaaza-6,9-methanonaphtho[1,8-ab]heptalen-2-yl)phenol], the IC50 came to 1.2 nM in the test with AGS cells [1], 32.9 nM in the test on AGS cells [2] and 7.2 nM in the test on GP2d cells.

`Oc1cc(-c2nc3c4c(nc(OC[C@@]56CCCN5C[C@H](F)C6)nc4c2F)N2C[C@H]4CC[C@H](N4)[C@H]2CO3)c2c(F)c(F)ccc2c1` [Example 8-p1, 5,6-Difluoro-4-((5aS,6S,9R)-1-fluoro-12-(((2R,7aS)-2-fluorotetrahydro-1H-pyrrolizin-7 a(5H)-yl)methoxy)-5a,6,7,8,9,10-hexahydro-5H-4-oxa-3,10a,11,13,14-pentaaza-6,9-methanonaphtho[1,8-ab]heptalen-2-yl)naphthalen-2-ol]: the IC50 in the test on AGS cells [1] is 1.4 nM; with AGS cells [2], 50.3 nM; in the test on GP2d cells, 1.3 nM.

Consider `CCc1c(F)ccc2cc(O)cc(-c3nc4c5c(nc(OC[C@@]67CCCN6C[C@H](F)C7)nc5c3F)N3C[C@H]5CC[C@H](N5)[C@H]3CO4)c12` [Example 9-p1, 5-Ethyl-6-fluoro-4-((5aS,6S,9R)-1-fluoro-12-(((2R,7aS)-2-fluorotetrahydro-1H-pyrrolizin-7a(5H)-yl)methoxy)-5a,6,7,8,9,10-hexahydro-5H-4-oxa-3,10a,11,13,14-pentaaza-6,9-methanonaphtho[1,8-ab]heptalen-2-yl)naphthalen-2-ol], for which the IC50 in the test with AGS cells [1] is 0.4 nM; with AGS cells [2], 5.8 nM; with GP2d cells, 0.9 nM.

Consider `CCc1c(F)ccc2cc(O)cc(-c3nc4c5c(nc(OCC6(CN7CCC[C@H]7CO)CC6)nc5c3F)N3C[C@H]5CC[C@H](N5)[C@H]3CO4)c12` [Example 17, 5-Ethyl-6-fluoro-4-((5aS,6S,9R)-1-fluoro-12-((1-(((S)-2-(hydroxymethyl)pyrrolidin-1-yl)methyl)cyclopropyl)methoxy)-5a,6,7,8,9,10-hexahydro-5H-4-oxa-3,10a,11,13,14-pentaaza-6,9-methanonaphtho[1,8-ab]heptalen-2-yl)naphthalen-2-ol], for which the figures for the concentration for half-maximal inhibition (IC50) in the test with AGS cells [1], in the test with AGS cells [2] and in the test on GP2d cells were 2.8 nM, 52.2 nM and 4.9 nM, respectively.
